Experimental data published in ChEMBL document CHEMBL5528027, “Target identification, and optimization of dioxygenated amide derivatives as potent antibacterial agents with FabH inhibitory activity” (Eur J Med Chem, 2024).
pIC50: −log10 of the molar value. ≈ marks a conversion by molar mass, not a printed value.

Assays:
[1] = system: Escherichia coli; assay: Antibacterial activity against Escherichia coli assessed as reduction in bacterial growth measured after 24 hrs by two-fold serial dilution method; assay type: functional
[2] = system: Pseudomonas aeruginosa; assay: Antibacterial activity against Pseudomonas aeruginosa assessed as reduction in bacterial growth measured after 24 hrs by two-fold serial dilution method; assay type: functional
[3] = system: Bacillus subtilis; assay: Antibacterial activity against Bacillus subtilis assessed as reduction in bacterial growth measured after 24 hrs by two-fold serial dilution method; assay type: functional
[4] = system: Staphylococcus aureus; assay: Antibacterial activity against Staphylococcus aureus assessed as reduction in bacterial growth measured after 24 hrs by two-fold serial dilution method; assay type: functional
[5] = system: Klebsiella pneumoniae; assay: Antibacterial activity against Klebsiella pneumoniae assessed as reduction in bacterial growth measured after 24 hrs by two-fold serial dilution method; assay type: functional
[6] = system: Streptococcus pneumoniae; assay: Antibacterial activity against Streptococcus pneumoniae assessed as reduction in bacterial growth measured after 24 hrs by two-fold serial dilution method; assay type: functional
[7] = molecular target: T1, Beta-ketoacyl-[acyl-carrier-protein] synthase III (Escherichia coli K-12, UniProt P0A6R0); assay: Inhibition of Escherichia coli FabH
T1 sequence (P0A6R0 whole entry): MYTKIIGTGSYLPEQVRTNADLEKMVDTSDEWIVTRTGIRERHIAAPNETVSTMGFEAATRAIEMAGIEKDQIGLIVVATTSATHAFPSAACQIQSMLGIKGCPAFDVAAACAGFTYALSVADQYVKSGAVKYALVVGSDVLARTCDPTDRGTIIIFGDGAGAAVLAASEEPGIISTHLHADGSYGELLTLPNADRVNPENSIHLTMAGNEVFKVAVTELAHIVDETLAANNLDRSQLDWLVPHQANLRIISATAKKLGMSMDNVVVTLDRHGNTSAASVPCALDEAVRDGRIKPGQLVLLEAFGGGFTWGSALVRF

[8] = system: Erythrocyte; assay: Hemolytic activity in human erythrocytes assessed as hemolysis by spectrophotometric analysis; assay type: toxicity, cell-based
[9] = Cytotoxicity against mouse NIH3T3 cells incubated for 24 hrs by MTT analysis; assay type: toxicity, cell-based

With `CCOC(=O)c1cccnc1NC(=O)c1ccc2c(c1)OCCCO2` the MIC [1] was 6.25 µg/mL (≈ 18.3 µM), the MIC [2] was 12.5 µg/mL (≈ 36.5 µM) and the MIC [3] was 25 µg/mL (≈ 73 µM). For the same compound, the MIC [4] was 25 µg/mL (≈ 73 µM), the MIC [5] was 25 µg/mL (≈ 73 µM) and the MIC [6] was 25 µg/mL (≈ 73 µM). For the same compound, the pIC50 [7] was 4.57, the HC30 [8] was greater than 10 µg/mL and the IC50 at 24 h [9] was 147 µM.

In the case of `O=C(NCCc1nc2ccccc2[nH]1)c1ccc2c(c1)OCCCO2`, the MIC [1] was 25 µg/mL (≈ 74.1 µM), the MIC [2] was 50 µg/mL (≈ 148 µM) and the MIC [3] was 25 µg/mL (≈ 74.1 µM). It also gave an MIC [4] greater than 100 µg/mL, an MIC [5] greater than 100 µg/mL and an MIC [6] of 50 µg/mL (≈ 148 µM).

Work on `COc1cc(NC(=O)c2ccc3c(c2)OCCCO3)c2ncccc2c1` yielded an MIC [1] of 50 µg/mL (≈ 143 µM), an MIC [2] of 50 µg/mL (≈ 143 µM) and an MIC [3] greater than 100 µg/mL. For the same compound, the MIC [4] was 50 µg/mL (≈ 143 µM), the MIC [5] was 50 µg/mL (≈ 143 µM) and the MIC [6] was greater than 100 µg/mL.

`CCOC(=O)c1c(NC(=O)c2ccc3c(c2)OCCCO3)sc2c1CCCC2` gave an MIC [1] greater than 100 µg/mL, an MIC [2] of 50 µg/mL (≈ 125 µM) and an MIC [3] of 50 µg/mL (≈ 125 µM). The MIC [4] was greater than 100 µg/mL, the MIC [5] was 50 µg/mL (≈ 125 µM) and the MIC [6] was 50 µg/mL (≈ 125 µM).

`COc1ccc2[nH]cc(CNC(=O)c3ccc4c(c3)OCCCO4)c2c1` gave an MIC [1] of 25 µg/mL (≈ 70.9 µM), an MIC [2] of 50 µg/mL (≈ 142 µM) and an MIC [3] of 25 µg/mL (≈ 70.9 µM). It also gave an MIC [4] of 50 µg/mL (≈ 142 µM), an MIC [5] of 50 µg/mL (≈ 142 µM) and an MIC [6] greater than 100 µg/mL.

In the case of `COC(=O)c1cccc(-c2ccc(NC(=O)c3ccc4c(c3)OCCCO4)cc2)c1`, the MIC [1] was 12.5 µg/mL (≈ 31 µM), the MIC [2] was 50 µg/mL (≈ 124 µM) and the MIC [3] was 50 µg/mL (≈ 124 µM). The MIC [4] was 50 µg/mL (≈ 124 µM), the MIC [5] was 50 µg/mL (≈ 124 µM) and the MIC [6] was greater than 100 µg/mL. For the same compound, the pIC50 [7] was 4.71, the HC30 [8] was greater than 10 µg/mL and the IC50 at 24 h [9] was 161 µM.

`O=C(c1ccc2c(c1)OCCCO2)N1CCCCC1` showed an MIC [1] of 25 µg/mL (≈ 95.7 µM), an MIC [2] of 25 µg/mL (≈ 95.7 µM) and an MIC [3] of 12.5 µg/mL (≈ 47.8 µM). For the same compound, the MIC [4] was 25 µg/mL (≈ 95.7 µM), the MIC [5] was 25 µg/mL (≈ 95.7 µM) and the MIC [6] was 25 µg/mL (≈ 95.7 µM).

`O=C(c1ccc2c(c1)OCCCO2)N1CCN(CCO)CC1` gave an MIC [1] of 50 µg/mL (≈ 163 µM), an MIC [2] of 25 µg/mL (≈ 81.6 µM) and an MIC [3] greater than 100 µg/mL. The MIC [4] was 25 µg/mL (≈ 81.6 µM), the MIC [5] was greater than 100 µg/mL and the MIC [6] was 25 µg/mL (≈ 81.6 µM).

`O=C(c1ccc2c(c1)OCCCO2)N1CCCC1` gave an MIC [1] greater than 100 µg/mL, an MIC [2] of 50 µg/mL (≈ 202 µM) and an MIC [3] greater than 100 µg/mL. The MIC [4] was greater than 100 µg/mL, the MIC [5] was greater than 100 µg/mL and the MIC [6] was greater than 100 µg/mL.

`O=C(c1ccc2c(c1)OCCCO2)N1CCN(Cc2ccccc2)CC1` showed an MIC [1] of 50 µg/mL (≈ 142 µM), an MIC [2] of 50 µg/mL (≈ 142 µM) and an MIC [3] greater than 100 µg/mL. It also gave an MIC [4] of 50 µg/mL (≈ 142 µM), an MIC [5] of 25 µg/mL (≈ 70.9 µM) and an MIC [6] of 25 µg/mL (≈ 70.9 µM).

With `Cc1ccc(NC(=O)c2ccc3c(c2)OCCCO3)cn1` the MIC [1] was 25 µg/mL (≈ 87.9 µM), the MIC [2] was 50 µg/mL (≈ 176 µM) and the MIC [3] was greater than 100 µg/mL. The MIC [4] was 50 µg/mL (≈ 176 µM), the MIC [5] was greater than 100 µg/mL and the MIC [6] was greater than 100 µg/mL.

With `CC1(CCNC(=O)c2ccc3c(c2)OCCCO3)N=N1` the MIC [1] was 6.25 µg/mL (≈ 22.7 µM), the MIC [2] was 6.25 µg/mL (≈ 22.7 µM) and the MIC [3] was 12.5 µg/mL (≈ 45.4 µM). The MIC [4] was 6.25 µg/mL (≈ 22.7 µM).

Compound `CCN1CCN(C(=O)c2ccc3c(c2)OCCCO3)CC1` has an MIC [1] of 25 µg/mL (≈ 86.1 µM), an MIC [2] of 50 µg/mL (≈ 172 µM) and an MIC [3] greater than 100 µg/mL. For the same compound, the MIC [4] was 25 µg/mL (≈ 86.1 µM), the MIC [5] was 50 µg/mL (≈ 172 µM) and the MIC [6] was 50 µg/mL (≈ 172 µM).

Compound `O=C(Nc1ccc2cc[nH]c2c1)c1ccc2c(c1)OCCCO2` has an MIC [1] of 3.13 µg/mL (≈ 10.2 µM), an MIC [2] of 6.25 µg/mL (≈ 20.3 µM) and an MIC [3] of 12.5 µg/mL (≈ 40.5 µM). For the same compound, the MIC [4] was 6.25 µg/mL (≈ 20.3 µM), the MIC [5] was 3.13 µg/mL (≈ 10.2 µM) and the MIC [6] was 12.5 µg/mL (≈ 40.5 µM). For the same compound, the pIC50 [7] was 4.88, the HC30 [8] was greater than 10 µg/mL and the IC50 at 24 h [9] was 198 µM.

`O=C(Nc1ccncn1)c1ccc2c(c1)OCCCO2` gave an MIC [1] of 50 µg/mL (≈ 184 µM), an MIC [2] of 50 µg/mL (≈ 184 µM) and an MIC [3] greater than 100 µg/mL. The MIC [4] was 50 µg/mL (≈ 184 µM), the MIC [5] was greater than 100 µg/mL and the MIC [6] was 50 µg/mL (≈ 184 µM).

Compound `COc1ccc(NC(=O)c2ccc3c(c2)OCCCO3)c2ncccc12` has an MIC [1] greater than 100 µg/mL, an MIC [2] of 50 µg/mL (≈ 143 µM) and an MIC [3] greater than 100 µg/mL. It also gave an MIC [4] greater than 100 µg/mL, an MIC [5] greater than 100 µg/mL and an MIC [6] of 50 µg/mL (≈ 143 µM).

With `CN1CCN(C(=O)c2ccc3c(c2)OCCCO3)CC1` the MIC [1] was 6.25 µg/mL (≈ 22.6 µM), the MIC [2] was 3.13 µg/mL (≈ 11.3 µM) and the MIC [3] was 6.25 µg/mL (≈ 22.6 µM). It also gave an MIC [4] of 3.13 µg/mL (≈ 11.3 µM), an MIC [5] of 6.25 µg/mL (≈ 22.6 µM) and an MIC [6] of 12.5 µg/mL (≈ 45.2 µM). The pIC50 [7] was 4.42, the HC30 [8] was greater than 10 µg/mL and the IC50 at 24 h [9] was 175 µM.

In the case of `Cc1ccc2cccc(NC(=O)c3ccc4c(c3)OCCCO4)c2n1`, the MIC [1] was 12.5 µg/mL (≈ 37.4 µM), the MIC [2] was 12.5 µg/mL (≈ 37.4 µM) and the MIC [3] was 25 µg/mL (≈ 74.8 µM). It also gave an MIC [4] of 12.5 µg/mL (≈ 37.4 µM), an MIC [5] of 50 µg/mL (≈ 150 µM) and an MIC [6] of 25 µg/mL (≈ 74.8 µM).
